Test results: US10975056B2 (GlaxoSmithKline Intellectual Property Development Limited, priority 2016, dated 2021)
Where “and” joins values, the source holds several entries; their conditions need not be identical. Equal values may be shown once. Where a name gives a salt, the structure may show the parent alone. Read-outs that look alike come from different tables or passages of the source.

Tests used:
[1] = test system: erythroid progenitor cells (EPCs); test: Fetal hemoglobin (HbF) ELISA in day 7 erythroid progenitor cells; type: cell-based, human; details: Homo sapiens, Erythroid progenitor cell, HbF ELISA, day 7 EPCs, 5 days; read-out: EPC ELISA (pEC50 category) (converted);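 also: for fetal hemoglobin induction normalized to vehicle-treated cells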
Procedure, shortened: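 Read-out was OD450 from an HRP/TMB sandwich ELISA on lysates, normalized to DMSO-only control wells. Thawed day 7 EPCs from human marrow CD34+ cells had been treated for 5 days at 37° C with Compound A, 22 concentrations […].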

DNMT1 = DNMT1 (Homo sapiens, UniProt P26358); test: DNMT1 biochemical activity, breaklight assay and/or SPA assay
[2] = binned activity in either the breaklight or the SPA assay, read-out: DNMT1 BioChemical (pIC50 category) (converted)
[3] = breaklight assay and/or SPA assay, repeated experimental runs, read-out: average pIC50 against DNMT1 (converted)
[4] = binned activity in either the breaklight or the SPA assay

DNMT1, sequence (P26358 whole entry, looked up): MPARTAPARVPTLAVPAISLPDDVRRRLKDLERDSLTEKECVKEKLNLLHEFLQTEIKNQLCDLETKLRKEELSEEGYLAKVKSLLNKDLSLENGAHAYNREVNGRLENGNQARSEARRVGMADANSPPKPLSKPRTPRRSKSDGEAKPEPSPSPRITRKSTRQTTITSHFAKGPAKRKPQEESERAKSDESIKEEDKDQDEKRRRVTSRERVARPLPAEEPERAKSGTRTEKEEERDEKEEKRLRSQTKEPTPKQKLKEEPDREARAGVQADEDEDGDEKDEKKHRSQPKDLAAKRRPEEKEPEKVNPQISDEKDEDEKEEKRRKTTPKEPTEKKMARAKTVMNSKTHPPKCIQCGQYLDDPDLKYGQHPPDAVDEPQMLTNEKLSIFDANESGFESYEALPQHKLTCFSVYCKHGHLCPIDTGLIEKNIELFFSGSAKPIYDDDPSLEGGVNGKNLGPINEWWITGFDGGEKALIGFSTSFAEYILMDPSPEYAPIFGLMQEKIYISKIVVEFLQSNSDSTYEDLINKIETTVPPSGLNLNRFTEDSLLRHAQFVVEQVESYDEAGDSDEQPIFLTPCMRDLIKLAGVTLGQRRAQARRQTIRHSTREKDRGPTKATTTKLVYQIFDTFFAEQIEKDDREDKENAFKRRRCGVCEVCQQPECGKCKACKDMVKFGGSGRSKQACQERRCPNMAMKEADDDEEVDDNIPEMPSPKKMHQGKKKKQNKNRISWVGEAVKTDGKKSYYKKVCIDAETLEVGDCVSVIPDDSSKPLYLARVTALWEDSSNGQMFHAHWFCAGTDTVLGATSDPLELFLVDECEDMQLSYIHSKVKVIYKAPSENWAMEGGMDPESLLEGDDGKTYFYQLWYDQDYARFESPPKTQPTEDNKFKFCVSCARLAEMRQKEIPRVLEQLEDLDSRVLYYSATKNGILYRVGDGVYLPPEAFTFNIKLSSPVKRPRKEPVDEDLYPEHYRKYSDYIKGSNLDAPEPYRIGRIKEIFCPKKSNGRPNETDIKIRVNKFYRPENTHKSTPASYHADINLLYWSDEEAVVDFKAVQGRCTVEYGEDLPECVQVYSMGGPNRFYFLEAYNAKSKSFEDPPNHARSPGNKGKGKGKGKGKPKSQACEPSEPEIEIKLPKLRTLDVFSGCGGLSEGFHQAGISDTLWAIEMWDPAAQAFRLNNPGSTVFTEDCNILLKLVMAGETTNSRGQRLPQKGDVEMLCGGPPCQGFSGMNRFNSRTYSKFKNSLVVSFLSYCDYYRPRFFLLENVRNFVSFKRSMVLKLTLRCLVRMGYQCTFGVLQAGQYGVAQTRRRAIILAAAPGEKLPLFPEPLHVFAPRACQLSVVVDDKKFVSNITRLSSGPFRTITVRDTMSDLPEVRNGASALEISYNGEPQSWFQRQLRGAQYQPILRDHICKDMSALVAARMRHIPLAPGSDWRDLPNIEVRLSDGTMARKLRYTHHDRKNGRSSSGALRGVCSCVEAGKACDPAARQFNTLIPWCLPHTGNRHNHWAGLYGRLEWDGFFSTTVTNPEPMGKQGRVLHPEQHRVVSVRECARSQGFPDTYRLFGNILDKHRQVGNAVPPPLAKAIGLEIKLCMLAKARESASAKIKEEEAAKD

SMILES: CCc1c(C#N)c(S[C@H](C(N)=O)c2ccccc2)nc(N2CC[C@@H](N)[C@@H](F)C2)c1C#N [Example 531, (S)-2-((6-((3S,4R)-4-amino-3-fluoropiperidin-1-yl)-3,5-dicyano-4-ethylpyridin-2-yl)thio)-2-phenylacetamide • (0.67)2,2,2-trifluoroacetate • (0.33)methanesulfonate]
- EC50 [1]: < 316 nM
- IC50 (DNMT1; [2]): 1000 to 31600 nM
- IC50 (DNMT1; [3]): ≥ 1000 nM and 1580 nM

SMILES: CCc1c(C#N)c(SC(C(N)=O)c2ccc(C(F)(F)F)cc2)nc(N2CCC(NCC(C)(C)C)CC2)c1C#N (stereo not drawn) [Example 532, 2-((3,5-dicyano-4-ethyl-6-(4-(neopentylamino)piperidin-1-yl)pyridin-2-yl)thio)-2-(4-(trifluoromethyl)phenyl)acetamide]
- EC50 [1]: < 316 nM
- DNMT1 BioChemical (pIC50 category) (DNMT1; [4]): D (Category D: ≥6.5)

SMILES: CCc1c(C#N)c(S[C@@H](C(N)=O)c2ccccc2)nc(N2CC[C@@H](NC(=O)OC(C)(C)C)[C@@H](O)C2)c1C#N [Example 533, tert-butyl ((3S,4R)-1-(6-(((R)-2-amino-2-oxo-1-phenylethyl)thio)-3,5-dicyano-4-ethylpyridin-2-yl)-3-hydroxypiperidin-4-yl)carbamate]
- EC50 [1]: < 316 nM
- DNMT1 BioChemical (pIC50 category) (DNMT1; [4]): D (Category D: ≥6.5)

SMILES: CCc1c(C#N)c(SC(C(N)=O)c2ccccc2)nc(N(C)CCN2CC[C@H](N)C2)c1C#N (stereo partly drawn) [Example 535, 2-((6-((2-((S)-3-aminopyrrolidin-1-yl)ethyl)(methyl)amino)-3,5-dicyano-4-ethylpyridin-2-yl)thio)-2-phenylacetamide]
- EC50 [1]: 316 to 1000 nM
- DNMT1 BioChemical (pIC50 category) (DNMT1; [4]): D (Category D: ≥6.5)

SMILES: CCc1c(C#N)c(SC(C(N)=O)c2ccccc2)nc(N2CC[C@@H](N(C)C)C2)c1C#N (stereo partly drawn) [Example 536, 2-((3,5-dicyano-6-((R)-3-(dimethylamino)pyrrolidin-1-yl)-4-ethylpyridin-2-yl)thio)-2-phenylacetamide]
- EC50 [1]: 316 to 1000 nM
- DNMT1 BioChemical (pIC50 category) (DNMT1; [4]): D (Category D: ≥6.5)

SMILES: CCc1c(C#N)c(S[C@@H](C(N)=O)c2ccccc2)nc(N2CC[C@H](NC(=O)OC(C)(C)C)[C@H](O)C2)c1C#N [Example 537, tert-butyl ((3R,4S)-1-(6-(((R)-2-amino-2-oxo-1-phenylethyl)thio)-3,5-dicyano-4-ethylpyridin-2-yl)-3-hydroxypiperidin-4-yl)carbamate]
- EC50 [1]: 316 to 1000 nM
- DNMT1 BioChemical (pIC50 category) (DNMT1; [4]): D (Category D: ≥6.5)

SMILES: CCc1c(C#N)c(SC(C(N)=O)c2ccccc2)nc(N2CC[C@H](N(C)C)C2)c1C#N (stereo partly drawn) [Example 539, 2-((3,5-dicyano-6-((S)-3-(dimethylamino)pyrrolidin-1-yl)-4-ethylpyridin-2-yl)thio)-2-phenylacetamide]
- EC50 [1]: 1000 to 31600 nM
- DNMT1 BioChemical (pIC50 category) (DNMT1; [4]): D (Category D: ≥6.5)

SMILES: CCc1c(C#N)c(S[C@H](C(N)=O)c2ccccc2)nc(N2CC[C@H](N)[C@H](F)C2)c1C#N [Example 540, (S)-2-((6-((3R,4S)-4-amino-3-fluoropiperidin-1-yl)-3,5-dicyano-4-ethylpyridin-2-yl)thio)-2-phenylacetamide 2,2,2-trifluoroacetate]
- EC50 [1]: < 316 nM
- IC50 (DNMT1; [2]): 1000 to 31600 nM
- IC50 (DNMT1; [3]): ≥ 1000 nM and 3160 nM

SMILES: CCc1c(C#N)c(SC(C(N)=O)c2ccccc2)nc(N2CC[C@H](NCC(C)(C)O)C2)c1C#N (stereo partly drawn) [Example 541, 2-((3,5-dicyano-4-ethyl-6-((S)-3-((2-hydroxy-2-methylpropyl)amino)pyrrolidin-1-yl)pyridin-2-yl)thio)-2-phenylacetamide]
- EC50 [1]: < 316 nM
- DNMT1 BioChemical (pIC50 category) (DNMT1; [4]): D (Category D: ≥6.5)

SMILES: CCc1c(C#N)c(S[C@@H](C(N)=O)c2ccccc2)nc(N2CC[C@@H](NC(=O)OC(C)(C)C)[C@H](O)C2)c1C#N [Example 542, tert-butyl((3R,4R)-1-(6-(((R)-2-amino-2-oxo-1-phenylethyl)thio)-3,5-dicyano-4-ethylpyridin-2-yl)-3-hydroxypiperidin-4-yl)carbamate*]
- EC50 [1]: 316 to 1000 nM
- DNMT1 BioChemical (pIC50 category) (DNMT1; [4]): D (Category D: ≥6.5)

SMILES: CCc1c(C#N)c(SCc2ccc(C(=O)Nc3cn[nH]c3)cc2)nc(N2CCCN(C)CC2)c1C#N [Example 543, 4-(((3,5-dicyano-4-ethyl-6-(4-methyl-1,4-diazepan-1-yl)pyridin-2-yl)thio)methyl)-N-(1H-pyrazol-4-yl)benzamide]
- EC50 [1]: > 31600 nM
- DNMT1 BioChemical (pIC50 category) (DNMT1; [4]): D (Category D: ≥6.5)

SMILES: CCc1c(C#N)c(SC(C(N)=O)c2ccc(F)cc2)nc(N2CC[C@H](N(C)C)C2)c1C#N (stereo partly drawn) [Example 544, 2-((3,5-dicyano-6-((S)-3-(dimethylamino)pyrrolidin-1-yl)-4-ethylpyridin-2-yl)thio)-2-(4-fluorophenyl)acetamide]
- EC50 [1]: 1000 to 31600 nM
- DNMT1 BioChemical (pIC50 category) (DNMT1; [4]): D (Category D: ≥6.5)

SMILES: CCc1c(C#N)c(SC(C(N)=O)c2ccccc2)nc(N2CCC(NC)CC2)c1C#N (stereo not drawn) [Example 547, 2-((3,5-dicyano-4-ethyl-6-(4-(methylamino)piperidin-1-yl)pyridin-2-yl)thio)-2-phenylacetamide]
- EC50 [1]: < 316 nM
- DNMT1 BioChemical (pIC50 category) (DNMT1; [4]): D (Category D: ≥6.5)

SMILES: CCc1c(C#N)c(SC(C(N)=O)c2ccccc2)nc(N2CCC(N(C)C)CC2)c1C#N (stereo not drawn) [Example 548, 2-((3,5-dicyano-6-(4-(dimethylamino)piperidin-1-yl)-4-ethylpyridin-2-yl)thio)-2-phenylacetamide]
- EC50 [1]: < 316 nM
- DNMT1 BioChemical (pIC50 category) (DNMT1; [4]): D (Category D: ≥6.5)

SMILES: CCc1c(C#N)c(SC(C(N)=O)c2ccccc2)nc(N2CCC(N(C)CC)CC2)c1C#N (stereo not drawn) [Example 549, 2-((3,5-dicyano-4-ethyl-6-(4-(ethyl(methyl)amino)piperidin-1-yl)pyridin-2-yl)thio)-2-phenylacetamide]
- EC50 [1]: < 316 nM
- DNMT1 BioChemical (pIC50 category) (DNMT1; [4]): D (Category D: ≥6.5)

SMILES: CCc1c(C#N)c(SC(C(N)=O)c2ccccc2)nc(N2CCC(NCC(C)(C)C)CC2)c1C#N (stereo not drawn) [Example 550, 2-((3,5-dicyano-4-ethyl-6-(4-(neopentylamino)piperidin-1-yl)pyridin-2-yl)thio)-2-phenylacetamide]
- EC50 [1]: < 316 nM
- DNMT1 BioChemical (pIC50 category) (DNMT1; [4]): D (Category D: ≥6.5)

SMILES: CCc1c(C#N)c(SC(C(N)=O)c2ccccc2)nc(N2CCC(N(C)CC(C)(C)C)CC2)c1C#N (stereo not drawn) [Example 551, 2-((3,5-dicyano-4-ethyl-6-(4-(methyl(neopentyl)amino)piperidin-1-yl)pyridin-2-yl)thio)-2-phenylacetamide]
- EC50 [1]: < 316 nM
- DNMT1 BioChemical (pIC50 category) (DNMT1; [4]): D (Category D: ≥6.5)

SMILES: CCc1c(C#N)c(SC(C(N)=O)c2ccccc2)nc(N2CCC(NC3CC3)CC2)c1C#N (stereo not drawn) [Example 552, 2-((3,5-dicyano-6-(4-(cyclopropylamino)piperidin-1-yl)-4-ethylpyridin-2-yl)thio)-2-phenylacetamide]
- EC50 [1]: < 316 nM
- DNMT1 BioChemical (pIC50 category) (DNMT1; [4]): D (Category D: ≥6.5)

SMILES: CCc1c(C#N)c(SC(C(N)=O)c2ccccc2)nc(N2CCC(NCC(F)F)CC2)c1C#N (stereo not drawn) [Example 554, 2-((3,5-dicyano-6-(4-((2,2-difluoroethyl)amino)piperidin-1-yl)-4-ethylpyridin-2-yl)thio)-2-phenylacetamide]
- EC50 [1]: < 316 nM
- DNMT1 BioChemical (pIC50 category) (DNMT1; [4]): D (Category D: ≥6.5)

SMILES: CCc1c(C#N)c(SC(C(N)=O)c2ccccc2)nc(N2CCO[C@H](CNCC(C)(C)C)C2)c1C#N (stereo partly drawn) [Example 555]
- EC50 [1]: < 316 nM
- DNMT1 BioChemical (pIC50 category) (DNMT1; [4]): D (Category D: ≥6.5)

SMILES: CCc1c(C#N)c(SCc2ccc(N(C)S(C)(=O)=O)cc2)nc(N2CCC(NC(C)C)CC2)c1C#N [Example 556, N-(4-(((3,5-dicyano-4-ethyl-6-(4-(isopropylamino)piperidin-1-yl)pyridin-2-yl)thio)methyl)phenyl)-N-methylmethanesulfonamide]
- EC50 [1]: < 316 nM
- DNMT1 BioChemical (pIC50 category) (DNMT1; [4]): D (Category D: ≥6.5)

SMILES: CCc1c(C#N)c(SCc2ccc(N(C)S(C)(=O)=O)cc2)nc(N2CCC(NCCOC)CC2)c1C#N [Example 557, N-(4-(((3,5-dicyano-4-ethyl-6-(4-((2-methoxyethyl)amino)piperidin-1-yl)pyridin-2-yl)thio)methyl)phenyl)-N-methylmethanesulfonamide]
- EC50 [1]: < 316 nM
- DNMT1 BioChemical (pIC50 category) (DNMT1; [4]): D (Category D: ≥6.5)

SMILES: CCc1c(C#N)c(SC(C(N)=O)c2ccccc2)nc(N2CCOC(CN(C)C)C2)c1C#N (stereo not drawn) [Example 558, 2-((3,5-dicyano-6-(2-((dimethylamino)methyl)morpholino)-4-ethylpyridin-2-yl)thio)-2-phenylacetamide]
- EC50 [1]: < 316 nM
- DNMT1 BioChemical (pIC50 category) (DNMT1; [4]): D (Category D: ≥6.5)

SMILES: CCc1c(C#N)c(SC(C(N)=O)c2ccccc2)nc(N2CCOC(CN(CC)CC)C2)c1C#N (stereo not drawn) [Example 559, 2-((3,5-dicyano-6-(2-((diethylamino)methyl)morpholino)-4-ethylpyridin-2-yl)thio)-2-phenylacetamide]
- EC50 [1]: < 316 nM
- DNMT1 BioChemical (pIC50 category) (DNMT1; [4]): D (Category D: ≥6.5)

SMILES: CCc1c(C#N)c(SC(C(N)=O)c2ccccc2)nc(N2CCOC(CN3CCCC3)C2)c1C#N (stereo not drawn) [Example 560, 2-((3,5-dicyano-4-ethyl-6-(2-(pyrrolidin-1-ylmethyl)morpholino)pyridin-2-yl)thio)-2-phenylacetamide]
- EC50 [1]: < 316 nM
- DNMT1 BioChemical (pIC50 category) (DNMT1; [4]): D (Category D: ≥6.5)

SMILES: CCc1c(C#N)c(S[C@@H](C(N)=O)c2ccccc2)nc(N2CCO[C@H](CN)C2)c1C#N [Example 561, (R)-2-((6-((R)-2-(aminomethyl)morpholino)-3,5-dicyano-4-ethylpyridin-2-yl)thio)-2-phenylacetamide, Hydrochloride]
- EC50 [1]: < 316 nM
- DNMT1 BioChemical (pIC50 category) (DNMT1; [4]): D (Category D: ≥6.5)
